Measurements: patent US20240158391A1, “DERIVATIVES OF 4-(IMIDAZO[1,2-A]PYRIDIN-3-YL)-N-(PYRIDIN-3-YL) PYRIMIDIN-2- AMINE FOR TREATING PROLIFERATIVE DISEASES AND CONDITIONS” (AUCENTRA THERAPEUTICS PTY LTD, priority 2019, published 2024)

Tests used:
CDK1/CyclinB = CDK1/CyclinB (Homo sapiens, UniProt P06493); test: ADP Glo kinase assay, CDK1/CyclinB; type: biochemical; conditions: compound at 1 μM, read-out: Residual enzymatic activity (%) at 1 μM, CDK1 B
Summary of the method: (§1)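 Dose-response used a threefold serial dilution of ten concentrations, 10-0.0005 μM, carrying 0.5% DMSO. Each room-temperature kinase reaction ran for a time optimised per enzyme and was then halted by adding ADP Glo reagent.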

CDK2/CyclinA2 = CDK2/CyclinA2 (Homo sapiens, UniProt P24941); test: ADP Glo kinase assay, CDK2/CyclinA2; type: biochemical; conditions: for remaining activity at 1 µM: compound at 1 μM, read-out: Residual enzymatic activity (%) at 1 μM, CDK2 A; for Ki: Km ATP, read-out: Enzymatic inhibition, Ki, CDK2 A
Summary of the method: as §1

CDK4/CyclinD1 = CDK4/CyclinD1 (Homo sapiens, UniProt P11802); test: ADP Glo kinase assay, CDK4/CyclinD1; type: biochemical; conditions: compound at 1 μM, read-out: Residual enzymatic activity (%) at 1 μM, CDK4 D1
Summary of the method: as §1

CDK6/CyclinD3 = CDK6/CyclinD3 (Homo sapiens, UniProt Q00534); test: ADP Glo kinase assay, CDK6/CyclinD3; type: biochemical; conditions: for remaining activity at 1 µM: compound at 1 μM, read-out: Residual enzymatic activity (%) at 1 μM, CDK6 D3
Summary of the method: as §1

CDK7/CyclinH/Mat1 = CDK7/CyclinH/Mat1 (Homo sapiens, UniProt P50613); test: ADP Glo kinase assay, CDK7/CyclinH/Mat1; type: biochemical; conditions: for remaining activity at 1 µM: compound at 1 μM, read-out: Residual enzymatic activity (%) at 1 μM, CDK7 H; for Ki: Km ATP, read-out: Enzymatic inhibition, Ki, CDK7 H
Summary of the method: as §1

CDK9/CyclinT1 = CDK9/CyclinT1 (Homo sapiens, UniProt P50750); test: ADP Glo kinase assay, CDK9/CyclinT1; type: biochemical; conditions: CDK9/CyclinT1; Km ATP; read-out: Enzymatic inhibition, Ki, CDK9 T1
Summary of the method: as §1

FLT3-ITD = biological target: T1, FLT3-ITD (Homo sapiens, UniProt P36888); test: ADP Glo kinase assay, FLT3-ITD; type: biochemical; conditions: Km ATP 100 μM, read-out: Enzymatic inhibition, Ki, FLT3-ITD
T1 sequence (P36888 1-993): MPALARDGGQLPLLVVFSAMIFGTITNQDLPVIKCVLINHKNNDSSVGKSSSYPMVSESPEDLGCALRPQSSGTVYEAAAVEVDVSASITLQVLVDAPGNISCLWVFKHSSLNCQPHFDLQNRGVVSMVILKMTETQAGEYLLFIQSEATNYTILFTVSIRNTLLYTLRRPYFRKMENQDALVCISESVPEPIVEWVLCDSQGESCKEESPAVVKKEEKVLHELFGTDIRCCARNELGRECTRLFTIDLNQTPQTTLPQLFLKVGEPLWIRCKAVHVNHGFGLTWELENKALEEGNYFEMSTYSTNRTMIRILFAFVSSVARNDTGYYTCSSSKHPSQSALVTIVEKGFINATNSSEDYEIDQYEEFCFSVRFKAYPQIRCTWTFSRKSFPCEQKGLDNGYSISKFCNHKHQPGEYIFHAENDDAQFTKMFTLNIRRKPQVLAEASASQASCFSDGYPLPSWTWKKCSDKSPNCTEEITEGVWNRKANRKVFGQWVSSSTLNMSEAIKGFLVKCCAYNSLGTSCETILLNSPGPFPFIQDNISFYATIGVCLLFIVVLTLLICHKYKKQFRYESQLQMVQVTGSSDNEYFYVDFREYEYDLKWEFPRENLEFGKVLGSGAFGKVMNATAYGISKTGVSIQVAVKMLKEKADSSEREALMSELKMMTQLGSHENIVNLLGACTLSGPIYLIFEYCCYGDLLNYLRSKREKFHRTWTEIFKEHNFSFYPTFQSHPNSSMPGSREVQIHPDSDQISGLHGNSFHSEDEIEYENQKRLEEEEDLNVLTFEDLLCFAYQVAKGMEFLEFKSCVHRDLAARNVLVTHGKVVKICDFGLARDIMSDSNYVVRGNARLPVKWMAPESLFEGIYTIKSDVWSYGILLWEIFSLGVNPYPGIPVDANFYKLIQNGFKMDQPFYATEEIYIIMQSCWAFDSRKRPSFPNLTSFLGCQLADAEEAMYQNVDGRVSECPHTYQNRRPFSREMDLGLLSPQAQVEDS
Summary of the method: as §1

MV-4-11 = test: Proliferation assay (resazurin, leukemia cell lines), MV-4-11; type: cell-based; conditions: Homo sapiens, MV4-11, read-out: 72 h Growth inhibition GI50, MV-4-11 cells
Description: The following compounds were used as comparators.

Sequence of CDK1/CyclinB (P06493 whole entry, species assumed): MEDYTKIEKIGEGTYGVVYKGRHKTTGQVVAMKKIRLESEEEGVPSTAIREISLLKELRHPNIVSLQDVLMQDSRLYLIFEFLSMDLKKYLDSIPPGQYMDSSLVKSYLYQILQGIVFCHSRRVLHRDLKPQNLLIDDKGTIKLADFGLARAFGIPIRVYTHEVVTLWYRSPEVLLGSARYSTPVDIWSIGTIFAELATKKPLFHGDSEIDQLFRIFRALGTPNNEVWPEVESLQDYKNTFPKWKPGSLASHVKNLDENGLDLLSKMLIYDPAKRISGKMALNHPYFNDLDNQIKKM
Sequence of CDK1/CyclinB (P14635 whole entry partner, species assumed): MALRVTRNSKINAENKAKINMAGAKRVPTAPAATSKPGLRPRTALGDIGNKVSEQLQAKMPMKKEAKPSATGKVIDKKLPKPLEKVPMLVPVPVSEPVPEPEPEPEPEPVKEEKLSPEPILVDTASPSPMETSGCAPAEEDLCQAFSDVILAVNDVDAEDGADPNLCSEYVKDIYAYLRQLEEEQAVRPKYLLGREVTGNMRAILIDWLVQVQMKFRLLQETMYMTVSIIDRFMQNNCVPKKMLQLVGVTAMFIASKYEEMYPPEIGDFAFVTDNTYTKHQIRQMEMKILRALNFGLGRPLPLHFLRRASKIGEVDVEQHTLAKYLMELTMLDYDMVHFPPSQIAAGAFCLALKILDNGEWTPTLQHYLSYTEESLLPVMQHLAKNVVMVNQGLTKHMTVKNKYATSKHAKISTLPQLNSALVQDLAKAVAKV
Sequence of CDK7/CyclinH/Mat1 (P50613 whole entry, species assumed): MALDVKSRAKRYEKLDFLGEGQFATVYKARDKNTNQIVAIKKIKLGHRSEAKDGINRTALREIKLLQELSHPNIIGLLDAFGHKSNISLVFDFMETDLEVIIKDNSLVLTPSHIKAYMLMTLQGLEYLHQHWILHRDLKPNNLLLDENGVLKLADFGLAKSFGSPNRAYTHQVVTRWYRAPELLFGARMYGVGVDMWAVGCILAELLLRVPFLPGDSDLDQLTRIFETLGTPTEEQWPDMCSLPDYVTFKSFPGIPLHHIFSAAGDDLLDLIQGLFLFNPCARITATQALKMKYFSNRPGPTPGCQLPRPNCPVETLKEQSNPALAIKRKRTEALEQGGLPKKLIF
Sequence of CDK7/CyclinH/Mat1 (P51946 whole entry partner, species assumed): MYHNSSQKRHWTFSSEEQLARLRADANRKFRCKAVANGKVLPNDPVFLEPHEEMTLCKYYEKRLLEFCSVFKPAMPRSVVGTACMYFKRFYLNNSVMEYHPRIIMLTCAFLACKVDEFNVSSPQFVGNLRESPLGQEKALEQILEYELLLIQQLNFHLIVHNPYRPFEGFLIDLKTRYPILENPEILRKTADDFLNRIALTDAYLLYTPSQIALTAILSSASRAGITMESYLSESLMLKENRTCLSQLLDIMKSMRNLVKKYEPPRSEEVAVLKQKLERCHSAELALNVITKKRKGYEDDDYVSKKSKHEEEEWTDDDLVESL
Sequence of CDK7/CyclinH/Mat1 (P51948 whole entry partner, species assumed): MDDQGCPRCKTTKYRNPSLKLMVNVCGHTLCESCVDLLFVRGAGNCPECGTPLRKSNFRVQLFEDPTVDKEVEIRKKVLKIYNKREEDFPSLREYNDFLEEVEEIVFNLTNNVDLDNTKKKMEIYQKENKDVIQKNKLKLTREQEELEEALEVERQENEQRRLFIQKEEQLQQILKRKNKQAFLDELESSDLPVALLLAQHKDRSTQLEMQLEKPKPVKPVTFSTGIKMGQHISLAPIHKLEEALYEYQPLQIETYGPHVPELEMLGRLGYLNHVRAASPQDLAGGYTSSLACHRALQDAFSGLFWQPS
Sequence of CDK4/CyclinD1 (P11802 whole entry, species assumed): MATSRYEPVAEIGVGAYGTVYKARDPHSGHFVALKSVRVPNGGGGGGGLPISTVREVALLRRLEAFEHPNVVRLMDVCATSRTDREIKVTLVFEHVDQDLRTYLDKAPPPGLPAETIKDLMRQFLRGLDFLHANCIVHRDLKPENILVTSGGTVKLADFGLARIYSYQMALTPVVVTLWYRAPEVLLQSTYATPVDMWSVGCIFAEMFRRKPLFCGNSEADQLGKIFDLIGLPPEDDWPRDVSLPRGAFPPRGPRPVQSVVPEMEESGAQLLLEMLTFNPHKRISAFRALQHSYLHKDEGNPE
Sequence of CDK4/CyclinD1 (P24385 whole entry partner, species assumed): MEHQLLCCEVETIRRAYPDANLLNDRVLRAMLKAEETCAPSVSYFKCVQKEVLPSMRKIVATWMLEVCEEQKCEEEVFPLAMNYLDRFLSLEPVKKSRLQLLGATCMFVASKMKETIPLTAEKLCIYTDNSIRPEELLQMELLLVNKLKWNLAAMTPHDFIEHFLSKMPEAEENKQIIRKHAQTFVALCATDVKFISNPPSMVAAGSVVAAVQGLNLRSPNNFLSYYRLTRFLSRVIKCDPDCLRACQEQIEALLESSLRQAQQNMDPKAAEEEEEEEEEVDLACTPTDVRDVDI
Sequence of CDK9/CyclinT1 (P50750 whole entry, species assumed): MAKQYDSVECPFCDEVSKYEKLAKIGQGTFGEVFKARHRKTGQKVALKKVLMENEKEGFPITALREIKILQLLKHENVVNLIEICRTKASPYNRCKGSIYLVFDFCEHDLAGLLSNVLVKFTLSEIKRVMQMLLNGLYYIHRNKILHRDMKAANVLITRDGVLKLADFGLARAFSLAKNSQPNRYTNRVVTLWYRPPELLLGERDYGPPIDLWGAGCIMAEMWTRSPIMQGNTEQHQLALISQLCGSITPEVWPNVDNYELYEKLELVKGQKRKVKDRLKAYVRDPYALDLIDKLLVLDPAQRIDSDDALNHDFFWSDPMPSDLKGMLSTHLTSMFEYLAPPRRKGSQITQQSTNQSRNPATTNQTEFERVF
Sequence of CDK9/CyclinT1 (O60563 whole entry partner, species assumed): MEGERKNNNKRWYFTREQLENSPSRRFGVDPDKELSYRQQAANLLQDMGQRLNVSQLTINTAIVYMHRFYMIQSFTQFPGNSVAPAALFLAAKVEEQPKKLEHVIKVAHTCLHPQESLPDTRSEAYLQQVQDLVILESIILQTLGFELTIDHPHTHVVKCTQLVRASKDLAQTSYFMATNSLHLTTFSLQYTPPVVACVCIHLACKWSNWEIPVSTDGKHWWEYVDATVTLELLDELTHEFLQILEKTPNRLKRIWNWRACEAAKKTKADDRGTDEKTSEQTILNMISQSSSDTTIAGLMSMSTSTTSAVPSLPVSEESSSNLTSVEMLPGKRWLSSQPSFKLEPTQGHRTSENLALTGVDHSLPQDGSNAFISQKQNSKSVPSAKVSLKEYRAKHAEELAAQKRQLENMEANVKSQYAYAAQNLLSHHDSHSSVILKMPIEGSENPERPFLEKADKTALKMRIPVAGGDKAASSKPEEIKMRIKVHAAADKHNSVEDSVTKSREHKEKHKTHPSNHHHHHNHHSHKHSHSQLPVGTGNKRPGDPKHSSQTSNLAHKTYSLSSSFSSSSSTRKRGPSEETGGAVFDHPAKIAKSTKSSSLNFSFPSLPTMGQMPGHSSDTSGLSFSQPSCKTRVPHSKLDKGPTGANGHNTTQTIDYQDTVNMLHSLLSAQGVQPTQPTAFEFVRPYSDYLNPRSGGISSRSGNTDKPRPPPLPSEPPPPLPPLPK
Sequence of CDK6/CyclinD3 (Q00534 whole entry, species assumed): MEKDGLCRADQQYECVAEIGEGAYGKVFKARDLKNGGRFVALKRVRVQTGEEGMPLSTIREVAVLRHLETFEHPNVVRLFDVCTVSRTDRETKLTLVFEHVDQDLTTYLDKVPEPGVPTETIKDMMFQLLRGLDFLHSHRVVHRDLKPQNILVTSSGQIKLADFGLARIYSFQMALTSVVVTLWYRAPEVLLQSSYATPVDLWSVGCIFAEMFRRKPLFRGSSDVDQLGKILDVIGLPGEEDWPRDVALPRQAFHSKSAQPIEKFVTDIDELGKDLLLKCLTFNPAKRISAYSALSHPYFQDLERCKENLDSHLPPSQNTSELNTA
Sequence of CDK6/CyclinD3 (P30281 whole entry partner, species assumed): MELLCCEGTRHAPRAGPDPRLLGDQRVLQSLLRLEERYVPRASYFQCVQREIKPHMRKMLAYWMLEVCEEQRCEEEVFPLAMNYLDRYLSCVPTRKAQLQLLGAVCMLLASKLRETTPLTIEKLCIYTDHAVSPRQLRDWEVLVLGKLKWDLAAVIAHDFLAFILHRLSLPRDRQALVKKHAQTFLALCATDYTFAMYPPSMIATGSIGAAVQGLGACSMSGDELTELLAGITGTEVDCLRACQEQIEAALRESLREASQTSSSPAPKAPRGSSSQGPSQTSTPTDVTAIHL

CCS(=O)(=O)N1CCN(c2ccc(Nc3nccc(-c4cnc5ccc(Br)cn45)n3)cn2)CC1 [Compound 59, 4-(6-Bromoimidazo[1,2-a]pyridin-3-yl)-N-(6-(4-(ethylsulfonyl)piperazin-1-yl)pyridin-3-yl)pyrimidin-2-amine]
remaining activity at 1 µM (CDK1/CyclinB): 70%
remaining activity at 1 µM (CDK2/CyclinA2): 44%
remaining activity at 1 µM (CDK4/CyclinD1): 52%
remaining activity at 1 µM (CDK6/CyclinD3): 49%
remaining activity at 1 µM (CDK7/CyclinH/Mat1): 88%
Ki (CDK9/CyclinT1): 234 nM
Ki (FLT3-ITD): 86 nM
GI50 (MV-4-11): 32 nM

CN(C)c1ccc(Nc2nccc(-c3cnc4ccc(Br)cn34)n2)cn1 [Compound 65, N^5-(4-(6-Bromoimidazo[1,2-a]pyridin-3-yl)pyrimidin-2-yl)-N^2,N^2-dimethylpyridine-2,5-diamine]
remaining activity at 1 µM (CDK1/CyclinB): 56%
remaining activity at 1 µM (CDK2/CyclinA2): 39%
remaining activity at 1 µM (CDK4/CyclinD1): 86%
Ki (CDK6/CyclinD3; Km ATP, read-out: Enzymatic inhibition, Ki, CDK6 D3): 159 nM
remaining activity at 1 µM (CDK7/CyclinH/Mat1): 71%
Ki (CDK9/CyclinT1): 142 nM
Ki (FLT3-ITD): 24 nM
GI50 (MV-4-11): 41 nM

O=C1NCCC12CCN(c1ccc(Nc3nccc(-c4cnc5ccc(-c6cnn(C(F)F)c6)cn45)n3)cn1)CC2 [Compound 73, 8-(5-((4-(6-(1-(Difluoromethyl)-1H-pyrazol-4-yl)imidazo[1,2-a]pyridin-3-yl)pyrimidin-2-yl)amino)pyridin-2-yl)-2,8-diazaspiro[4.5]decan-1-one]
remaining activity at 1 µM (CDK1/CyclinB): 73%
remaining activity at 1 µM (CDK2/CyclinA2): 80%
remaining activity at 1 µM (CDK4/CyclinD1): 82%
remaining activity at 1 µM (CDK6/CyclinD3): 97%
remaining activity at 1 µM (CDK7/CyclinH/Mat1): 83%
Ki (CDK9/CyclinT1): > 500 nM
Ki (FLT3-ITD): 116 nM
GI50 (MV-4-11): 14 nM

CCCNc1ccc(Nc2nccc(-c3cnc4ccc(Br)cn34)n2)cn1 [Compound 74, N^5-(4-(6-Bromoimidazo[1,2-a]pyridin-3-yl)pyrimidin-2-yl)-N^2-propylpyridine-2,5-diamine]
remaining activity at 1 µM (CDK1/CyclinB): 82%
remaining activity at 1 µM (CDK2/CyclinA2): 41%
remaining activity at 1 µM (CDK4/CyclinD1): 54%
remaining activity at 1 µM (CDK6/CyclinD3): 86%
remaining activity at 1 µM (CDK7/CyclinH/Mat1): 78%
Ki (CDK9/CyclinT1): 102 nM
Ki (FLT3-ITD): 40 nM
GI50 (MV-4-11): 20 nM

CCCNc1ccc(Nc2nccc(-c3cnc4ccc(-c5ccccc5)cn34)n2)cn1 [Compound 75, N^5-(4-(6-Phenylimidazo[1,2-a]pyridin-3-yl)pyrimidin-2-yl)-N^2-propylpyridine-2,5-diamine]
remaining activity at 1 µM (CDK1/CyclinB): 89%
remaining activity at 1 µM (CDK2/CyclinA2): 100%
remaining activity at 1 µM (CDK4/CyclinD1): 89%
remaining activity at 1 µM (CDK6/CyclinD3): 93%
remaining activity at 1 µM (CDK7/CyclinH/Mat1): 80%
Ki (CDK9/CyclinT1): 368 nM
Ki (FLT3-ITD): 160 nM
GI50 (MV-4-11): 78 nM

CCCNc1ccc(Nc2nccc(-c3cnc4ccc(-c5cnn(C(F)F)c5)cn34)n2)cn1 [Compound 76, N^5-(4-(6-(1-(Difluoromethyl)-1H-pyrazol-4-yl)imidazo[1,2-a]pyridin-3-yl)pyrimidin-2-yl)-N^2-propylpyridine-2,5-diamine]
remaining activity at 1 µM (CDK1/CyclinB): 96%
remaining activity at 1 µM (CDK2/CyclinA2): 62%
remaining activity at 1 µM (CDK4/CyclinD1): 97%
remaining activity at 1 µM (CDK6/CyclinD3): 71%
remaining activity at 1 µM (CDK7/CyclinH/Mat1): 57%
Ki (CDK9/CyclinT1): 629 nM
Ki (FLT3-ITD): 100 nM
GI50 (MV-4-11): 39 nM

CN1CCN(Cc2ccc(Nc3nccc(-c4cnc5ccc(Br)cn45)n3)cn2)CC1 [Compound 77, 4-(6-Bromoimidazo[1,2-a]pyridin-3-yl)-N-(6-((4-methylpiperazin-1-yl)methyl)pyridin-3-yl)pyrimidin-2-amine]
remaining activity at 1 µM (CDK1/CyclinB): 74%
Ki (CDK2/CyclinA2): 40 nM
remaining activity at 1 µM (CDK4/CyclinD1): 52%
remaining activity at 1 µM (CDK6/CyclinD3): 48%
remaining activity at 1 µM (CDK7/CyclinH/Mat1): 40%
Ki (CDK9/CyclinT1): 51 nM
Ki (FLT3-ITD): 70 nM
GI50 (MV-4-11): 35 nM

CN1CCN(Cc2ccc(Nc3nccc(-c4cnc5ccc(-c6ccccc6)cn45)n3)cn2)CC1 [Compound 78, N-(6-((4-Methylpiperazin-1-yl)methyl)pyridin-3-yl)-4-(6-phenylimidazo[1,2-a]pyridin-3-yl)pyrimidin-2-amine]
remaining activity at 1 µM (CDK1/CyclinB): 99%
remaining activity at 1 µM (CDK2/CyclinA2): 46%
remaining activity at 1 µM (CDK4/CyclinD1): 95%
remaining activity at 1 µM (CDK6/CyclinD3): 64%
remaining activity at 1 µM (CDK7/CyclinH/Mat1): 38%
Ki (CDK9/CyclinT1): 65 nM
Ki (FLT3-ITD): 90 nM
GI50 (MV-4-11): 105 nM

CCN1CCN(Cc2ccc(Nc3nccc(-c4cnc5ccc(Br)cn45)n3)cn2)CC1 [Compound 79, 4-(6-Bromoimidazo[1,2-a]pyridin-3-yl)-N-(6-((4-ethylpiperazin-1-yl)methyl)pyridin-3-yl)pyrimidin-2-amine]
remaining activity at 1 µM (CDK1/CyclinB): 70%
Ki (CDK2/CyclinA2): 42 nM
remaining activity at 1 µM (CDK4/CyclinD1): 48%
remaining activity at 1 µM (CDK6/CyclinD3): 27%
Ki (CDK7/CyclinH/Mat1): 168 nM
Ki (CDK9/CyclinT1): 57 nM
Ki (FLT3-ITD): 70 nM
GI50 (MV-4-11): 38 nM

CCN1CCN(Cc2ccc(Nc3nccc(-c4cnc5ccc(-c6ccccc6)cn45)n3)cn2)CC1 [Compound 80, N-(6-((4-Ethylpiperazin-1-yl)methyl)pyridin-3-yl)-4-(6-phenylimidazo[1,2-a]pyridin-3-yl)pyrimidin-2-amine]
remaining activity at 1 µM (CDK1/CyclinB): 92%
remaining activity at 1 µM (CDK2/CyclinA2): 37%
remaining activity at 1 µM (CDK4/CyclinD1): 81%
remaining activity at 1 µM (CDK6/CyclinD3): 59%
Ki (CDK7/CyclinH/Mat1): 222 nM
Ki (CDK9/CyclinT1): 60 nM
Ki (FLT3-ITD): 60 nM
GI50 (MV-4-11): 102 nM

CN(C)C1CCN(Cc2ccc(Nc3nccc(-c4cnc5ccc(Br)cn45)n3)cn2)CC1 [Compound 81, 4-(6-Bromoimidazo[1,2-a]pyridin-3-yl)-N-(6-((4-(dimethylamino)piperidin-1-yl)methyl)pyridin-3-yl)pyrimidin-2-amine]
remaining activity at 1 µM (CDK1/CyclinB): 84%
Ki (CDK2/CyclinA2): 41 nM
remaining activity at 1 µM (CDK4/CyclinD1): 47%
remaining activity at 1 µM (CDK6/CyclinD3): 22%
Ki (CDK7/CyclinH/Mat1): 205 nM
Ki (CDK9/CyclinT1): 143 nM
Ki (FLT3-ITD): 70 nM
GI50 (MV-4-11): 98 nM

COC(=O)c1ccc(Nc2nccc(-c3cnc4ccc(Br)cn34)n2)cn1 [Compound 82, Methyl 5-((4-(6-bromoimidazo[1,2-a]pyridin-3-yl)pyrimidin-2-yl)amino)picolinate]
remaining activity at 1 µM (CDK1/CyclinB): 90%
Ki (CDK2/CyclinA2): 52 nM
remaining activity at 1 µM (CDK4/CyclinD1): 94%
remaining activity at 1 µM (CDK6/CyclinD3): 99%
remaining activity at 1 µM (CDK7/CyclinH/Mat1): 93%
Ki (CDK9/CyclinT1): 163 nM
Ki (FLT3-ITD): 180 nM
GI50 (MV-4-11): 262 nM
